The experiment deals with T1, human full-length HSP90 (Homo sapiens, UniProt P08238).
T1 construct: E. coli expressed human full-length HSP90 protein; made in house; host or cells: E. coli
Nature of the experiment: Fluorescence Polarisation Assay (displacement of fluorescein-labelled probe RBT0045864-FAM). The class given is binding. The source says: A Fluorescence Polarization_assay was also employed for the evaluation of some of the compounds of the Examples:
Fluorescence polarization {also known as fluorescence anisotropy} measures the rotation of a fluorescing species in solution, where the larger molecule the more polarized the fluorescence emission.
When the fluorophore is excited with polarized light, the emitted light is also polarized. The molecular size is proportional to the polarization of the fluorescence emission.
Test compound is added to the assay plate, left to equilibrate and the anisotropy measured again. Any change in anisotropy is due to competitive binding of compound to HSP90, thereby releasing probe.
Stored at room temperature. • 3) BSA (bovine serum albumen) 10 mg/ml (New England Biolabs # B9001S) • 4) 20 mM probe in 100 % DMSO stock concentration. Stored in the dark at RT. Working concentration is 200 nM diluted in AR water and stored at 4 °C.
1) Add 100µl 1x buffer to wells 11A and 12A (=FP BLNK) 2) Prepare assay mix - all reagents are kept on ice with a lid on the bucket as the probe is light-sensitive.
This gives 2.5 mM {50x} stock cpd - assuming cpds 20 mM. • 4) Repeat for wells A2 to A10. Control in columns 11 and 12. • 5) Transfer 5 µl from row A to row B- not column 12. Mix well. • 6) Transfer 5 µl from row B to row C. […] Add 2 µl of 100mM standard cpd to wells B12 - H12 {is positive control } • 13)The Z' factor is calculated from zero controls and positive wells.

[1] abbreviates: Fluorescence Polarisation Assay, activity range.
Setting [2] is: table names no assay, parent examples tested in fluorescence polarization assay.

Structures are written as SMILES.

T1 sequence (P08238 whole entry): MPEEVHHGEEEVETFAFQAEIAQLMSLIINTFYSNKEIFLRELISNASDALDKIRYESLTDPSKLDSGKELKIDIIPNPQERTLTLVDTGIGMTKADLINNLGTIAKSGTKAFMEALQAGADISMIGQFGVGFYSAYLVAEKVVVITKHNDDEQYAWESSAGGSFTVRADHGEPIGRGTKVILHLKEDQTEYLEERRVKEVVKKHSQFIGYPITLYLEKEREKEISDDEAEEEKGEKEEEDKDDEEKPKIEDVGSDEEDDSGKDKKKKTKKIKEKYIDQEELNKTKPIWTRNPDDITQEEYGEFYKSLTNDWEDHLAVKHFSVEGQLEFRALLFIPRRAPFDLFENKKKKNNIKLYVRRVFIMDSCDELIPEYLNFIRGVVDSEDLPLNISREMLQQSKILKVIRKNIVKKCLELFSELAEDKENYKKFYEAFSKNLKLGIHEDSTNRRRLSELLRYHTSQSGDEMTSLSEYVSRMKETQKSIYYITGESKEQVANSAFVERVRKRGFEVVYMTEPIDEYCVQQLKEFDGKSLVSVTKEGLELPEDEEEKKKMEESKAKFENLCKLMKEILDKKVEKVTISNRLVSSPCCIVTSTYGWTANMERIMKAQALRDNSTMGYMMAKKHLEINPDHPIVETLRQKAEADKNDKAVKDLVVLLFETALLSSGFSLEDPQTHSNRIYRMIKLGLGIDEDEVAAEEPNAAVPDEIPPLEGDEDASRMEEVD

For orientation: IC50 means the concentration needed to halve the response being measured. Under setting [1], `CCNC(=O)c1noc(-c2cc(Cl)c(O)cc2O)c1-c1cccc(C(C)N2CCOCC2)c1` (stereo not shown) [Example 44] returned an IC50 below 10 µM.
Consider `CCNC(=O)c1noc(-c2cc(C(C)C)c(O)cc2O)c1-c1ccc(CN(CC)CC)cc1` [Example 78b], for which, under setting [2], the IC50 was below 10 µM.
Same read-out and setting: under `CCNC(=O)c1noc(-c2cc(-c3ccc(F)cc3)c(O)cc2O)c1-c1ccc(CN2CCN(C)CC2)cc1` [Example 75q] stands below 10 µM.
For the compound `CCNC(=O)c1noc(-c2cc(Cl)c(O)cc2O)c1-c1ccc(F)cc1` [Example 27], the IC50 under setting [1] was below 10 µM.
Regarding `CCNC(=O)c1noc(-c2cc(-c3ccc(F)cc3)c(O)cc2O)c1-c1ccc(CN(CC)CC)cc1` [Example 75r], the IC50 under setting [2] was below 10 µM.
In the case of `CCNC(=O)c1noc(-c2cc(Cl)c(O)cc2O)c1-c1ccc(F)c(CN2CCN(C(C)=O)CC2)c1` [Example 63], the IC50 under setting [1] is below 10 µM.
The same measure, in the same setting: under `CCNC(=O)c1noc(-c2cc(Cl)c(O)cc2O)c1-c1ccccc1CN1CCOCC1` [Example 41m] stands below 10 µM.
With `CCNC(=O)c1noc(-c2cc(C(C)C)c(O)cc2O)c1-c1ccc(CNCC(=O)NC(C)C)cc1` [Example 78ad], the IC50 under setting [2] is below 10 µM.
On the same count and under the same terms, to `CCNC(=O)c1noc(-c2cc(C(C)(C)C)c(O)cc2O)c1-c1ccc(CN2CCOCC2)cc1` [Example 77a] belongs below 10 µM; to `CCNC(=O)c1noc(-c2cc(-c3ccccc3F)c(O)cc2O)c1-c1ccc(CN2CCOCC2)cc1` [Example 75f], below 10 µM; to `CC(C)NC(=O)c1noc(-c2cc(C(C)C)c(O)cc2O)c1-c1ccc(CN2CCOCC2)cc1` [Example 78s], below 10 µM.
As to `CCNC(=O)c1noc(-c2cc(-c3ccccc3)c(O)cc2O)c1-c1ccc(CN2CCOCC2)cc1` [Example 74], the IC50 under setting [1] was below 10 µM.
`CC(C)NC(=O)c1noc(-c2cc(C(C)C)c(O)cc2O)c1-c1ccc(CNC2CCCCC2)cc1` [Example 78w]: the IC50 under setting [2] was below 10 µM.
As to `CCNC(=O)c1noc(-c2cc(Cl)c(O)cc2O)c1-c1cccc(N2CCN(C)CC2)c1` [Example 31, 5-(5-Chloro-2,4-dihydroxy-phenyl)-4-[3-(4-methyl-piperazin-1-yl)-phenyl]-isoxazole-3-carboxylic acid ethylamide], under setting [1], the IC50 was below 10 µM.
Regarding `CCNC(=O)c1noc(-c2cc(Cl)c(O)cc2O)c1-c1cccc(CN2CCN(C(C)=O)CC2)c1` [Example 62], the IC50 under setting [1] was below 10 µM.
For `CCNC(=O)c1noc(-c2cc(CCc3cccc(F)c3)c(O)cc2O)c1-c1ccc(CN2CCCCC2)cc1` [Example 75e], the half-maximal inhibitory concentration (IC50) under setting [2] was below 10 µM.
The compound `CCNC(=O)c1noc(-c2cc(Cl)c(O)cc2O)c1-c1ccccc1CN1CCN(C)CC1` [Example 41s] registered an IC50 under setting [1] below 10 µM.
As for `CCNC(=O)c1noc(-c2cc(C(C)C)c(O)cc2O)c1-c1ccc(CNCCOC)cc1` [Example 78m], the IC50 under setting [2] was below 10 µM.
In the case of `CCNC(=O)c1noc(-c2cc(Cl)c(O)cc2O)c1-c1ccc(CNCc2ccoc2)cc1` [Example 41a], the IC50 under setting [1] is below 10 µM.
Take `CCNC(=O)c1noc(-c2cc(C(C)C)c(O)cc2O)c1-c1ccc(CNC2CCNCC2)cc1` [Example 78q]: under setting [2], the IC50 was below 10 µM.
Consider `CCNC(=O)c1noc(-c2cc(C(C)C)c(O)cc2O)c1-c1ccc(CN2CCN(C)CC2)cc1` [Example 78c], for which the IC50 under setting [2] is below 10 µM.
As for `CCNC(=O)c1noc(-c2cc(C(C)C)c(O)cc2O)c1-c1ccc(CNC(C)(C)C)cc1` [Example 78l], under setting [2], the IC50 was below 10 µM.
On the same count and under the same terms, to `CCNC(=O)c1noc(-c2cc(CCc3cccc(F)c3)c(O)cc2O)c1-c1ccc(CN(CC)CC)cc1` [Example 75h] belongs below 10 µM.
`CCNC(=O)c1noc(-c2cc(Cl)c(O)cc2O)c1-c1ccc(CN2CCC(CCO)CC2)cc1` [Example 51] registered an IC50 under setting [1] below 10 µM.
For `Cc1noc(-c2cc(Cl)c(O)cc2O)c1-c1cccc(CN2CCOCC2)c1` [Example 28, 4-Chloro-6-[3-methyl-4-(3-morpholin-4-ylmethyl-phenyl)-isoxazol-5-yl]-benzene-1,3-diol], under setting [1], the IC50 was below 10 µM.

The values are drawn from EP1611112B1, “ISOXAZOLE COMPOUNDS AS INHIBITORS OF HEAT SHOCK PROTEINS” (Vernalis (Cambridge) Limited, priority 2003, dated 2004).
